Assay results as given in patent US10993923B2, “Method for ameliorating fibrosis using 1-[4-chloro-3-(trifluoromethyl)phenyl]-3-[3-(4-cyanophenoxy)phenyl]urea” (priority 2016, dated 2021).

Key:
[1] = test system: bleomycin-induced pulmonary fibrosis in mice; assay: Bleomycin-induced pulmonary fibrosis in mice; format: in vivo
Description: Male C57BL/6J mice (6-8 weeks of age) were obtained from the National Laboratory Animal Center (Taipei, Taiwan). All experimental procedures using these mice were performed according to protocols approved by the Institutional Laboratory Animal Care and Use Committee of Cardinal Tien Hospital. Each mouse was housed in cages (IVC; individual ventilation cage), and given daily photoperiod for 12 hours. Room temperature was maintained at 22-25° C., and humidity was maintained at 60 to 70%. Ventilation rate was remained at 16-18 times/hour. Food and drinking water (Altromin 1326 mice feed, Altromin, Germany) was freely given. All operations were executed in accordance with the standards of animal experimental animal operation of law. Management and feeding of animals were in compliant with guidance for care and use of laboratory (NRC 1996) rule approach implementation.
Pulmonary fibrosis was induced using bleomycin sulfate in male C57BL/6J mice (FIG. 1). The mice were intraperitoneally injected (IP) under anesthesia with Avertin (240 mg/Kg). On day 0 (n=20), a single dose of bleomycin (BLM) (1 mg=1000 IU, clinical level, Bleomycine Bellon, Sanofi-Aventis, France) was received in the mice (3.5 mg/kg) via intranasal instillation. The mice in the control group (n=10) were given saline only. On day 14 after intranasal BLM instillation, BLM treated mice were randomized into two groups receiving vehicle or 1-[4-chloro-3-(trifluoromethyl)phenyl]-3-[3-(4-cyanophenoxy)phenyl]urea until the end of the experiment. From day 14 to day 28, mice were administered intraperitoneally with 7.5 mg/kg/day of 1-[4-chloro-3-(trifluoromethyl)phenyl]-3-[3-(4-cyanophenoxy)phenyl]urea daily at a dose of 10 mL/kg body weight. The experimental time was 28 days and the 1-[4-chloro-3-(trifluoromethyl)phenyl]-3-[3-(4-cyanophenoxy)phenyl]urea compound was administered within 14 to 28 days.
The paraffin embedded tissue array blocks were cut into 4-μm-thick sections for H&E staining. For each case, carcinoma type, cell differentiation, growth pattern, tumor cell nuclear morphology, metaplasia, calcification, necrosis, mitosis count, invasion status and other specific differentiations were re-checked by two pathologists Immunohistochemical (IHC) staining was performed using a Ventana BenchMark XT automated stainer (Ventana, Tucson, Ariz.). Briefly, 4-μm-thick sections were cut consecutively from formalin-fixed, paraffin-embedded tissue. These sections were then mounted on silanized slides and allowed to dry overnight at 37° C. After deparaffinization and rehydration, the slides were incubated with 3% hydrogen peroxide solution for 5 minutes. After being washed with the supplied buffer, the tissue sections were repaired for 40 minutes with ethylenediamine tetraacetic acid.
Hydroxyproline analysis was performed using a hydroxyproline test kit following the manufacturer's instructions (Cell BioLabs, Inc., USA). Lung tissue was hydrolyzed in 12N HCl at 120° C. for 3 hours, and then washed and suspended in H2O. The tissue suspension was then mixed with chloramine-T at room temperature for 30 minutes. Then Ehrlich's reagent was added and reacted at 60° C. for 90 minutes. After that, the absorbance at 540 nm was measured.
Mice lung collagen was measured in lung homogenate using a Sircol assay (Biocolor, UK) following the manufacturer's instructions. Briefly, lung tissue homogenates were mixed with Sircol dye and centrifuged. The precipitate was resuspended in NaOH and the absorbance at 550 nm was measured. The absorbance obtained is directly proportional to the concentration of the recently synthesized collagen.
Whole-cell extracts were obtained via RIPA buffer (Millipore, USA) and protein concentrations were quantified via a BCA protein assay kit (Thermo Fisher Scientific, USA). 20 or 25 μg of protein was added to various percentages of SDS-sodium dodecyl sulfate-acrylamide gel and blotted onto a polyvinylidene fluoride (PVDF) membrane. […]

[2] = test system: CCl4-induced hepatic fibrosis in mice; assay: CCl4-induced hepatic fibrosis mice treatment model; format: in vivo, male C57BL/6J mice
Text: In male C57BL/6J mice, liver fibrosis was induced by carbon tetrachloride (CCl4). The mice were given peritoneal injection of carbon tetrachloride for 4 or 8 weeks every two weeks.
The mice liver samples were stored in 10% formaldehyde, dehydrated with gradient alcohol, embedded in paraffin blocks, sectioned to a thickness of 3 μm, placed on glass slides, and stained with Picrosirius Red Stain kit (ScyTek, USA), following the manufacturer's instructions. The severity of liver fibrosis was graded according to the Ishak fibrosis score. Quantitative collagen-positive area (qCPA) was determined by densitometry via ImageJ software. Hepatic hydroxyproline concentrations were measured by the hydroxyproline assay kit (Biovision, USA), following the manufacturer's instructions Immunohistochemistry was performed by the Leica BOND-MAX automatic chromatograph (Leica Biosystems, Germany), following the manufacturer's instructions.
Continuous variables are presented as mean (standard error), and categorical data are presented as number (percentage), as appropriate. Differences between subgroups were evaluated using the Student t test. Spearman's correlation was used for the association between SHP-1 and serum alanine aminotransferase (ALT). The mouse survival rate was estimated using the Kaplan-Meier method. The log-rank test was used to determine the statistical differences in survival of the different experimental groups. Statistical analysis was performed using STATA (version 13, Stata Corp, College Station, Tex., USA). All tests were two-sided, and P<0.05 was considered significant.

LX2 cells = assay: Apoptosis (Annexin V / propidium iodide flow cytometry), LX2 cells; format: cell-based, human
Description: Rat immortal hepatic stellate cell line HSC-T6 and LX2 human hepatic stellate cell line were provided by Professor Scott Friedman of Mount Sinai Hospital in New York, USA. The primary mouse HSCs were obtained via the way: after intubating the hepatic portal vein of the mouse, the cells were perfused with […] and ethylene glycol bis-aminoethyl ether tetraacetic acid (EGTA) buffer in situ, and then collagenase was injected to digest the liver tissue, and then the primary mouse HSCs were isolated by Histodnz gradient. HSC-T6 cells were cultured in Waymouth medium; LX2 cells and primary mouse HSCs were cultured in Dulbecco's Modified Eagle Medium (DMEM) containing 10% fetal bovine serum (FBS), 100 μg/mL penicillin, 100 μg/mL streptomycin, and 2 mM L-glutamine HSC-T6 cells, LX2 cells and primary mouse HSCs were cultured in a humidified incubator containing 5% carbon dioxide at 37° C. After adding the FBS, the resting HSC is started. […] The experiment was carried out following the manufacturer's instructions, and each group was triple repetition. […] The proportion of apoptotic cells was mixed the early (Annexin V+/PI-) and the late (Annexin V+/PI+) apoptotic cells measured by BD FACS Verse flow cytometry (BD, USA). Plasmids encoding the human wild-type SHP-1 and SHP-1 mutant, in which the N-SH2 domain was […] was changed into an […]) were cloned into the pCMV6-entry vector with myc-tag. These mutants were confirmed through DNA sequencing. […] (Chicago, Ill., USA).

[3] = Western blot, bleomycin model after treatment, FIG. 6

For `N#Cc1ccc(Oc2cccc(NC(=O)Nc3ccc(Cl)c(C(F)(F)F)c3)c2)cc1` [1-[4-chloro-3-(trifluoromethyl)phenyl]-3-[3-(4-cyanophenoxy)phenyl]urea], the “tolerability (drug-related adverse events)” value ([1]; 7.5 mg/kg dose, daily, day 14 to day 28 after bleomycin) was “well tolerated”, the “fibrin deposition (Masson's trichrome staining positive area)” value ([1]; 7.5 mg/kg/day, day 14 to 28, FIG. 3) was “significantly reduced” and the “pathological changes of lung sections (hematoxylin-eosin staining)” value ([1]; 7.5 mg/kg/day, day 14 to 28, versus BLM group, FIG. 2) was “significantly improved”. For the same molecule, the “collagen content of mice lung” value ([1]; Sircol assay, 7.5 mg/kg/day, day 14 to 28, FIG. 5) was “improved the accumulation of collagen”, the P-STAT3 [1, 3] was “decreased” and the amount of fibronectin [1, 3] was “decreased”. For the same molecule, the “expression level of E-cadherin” value [1, 3] was “increased”, the “decrease of hydroxyproline (Hyp) content compared with the BLM group” value ([1]; lung tissue, 7.5 mg/kg/day, day 14 to 28, FIG. 4) was “about 22%” and the “survival compared with the sorafenib treatment” value ([2]; 10 mg/kg, log rank P=0.0671, FIG. 12E) was “tendency to yield higher survival”. The “survival rate compared with the control group” value ([2]; 10 mg/kg, log-rank P=0.0291, FIG. 12E) was “significantly improved the survival rate”, the “anti-fibrotic activity in qCPA, Ishak fibrosis score and hydroxyproline concentration” value ([2]; 5, 10, or 20 mg/kg, FIG. 12B-12D) was “increasing anti-fibrotic activity” and the “hepatic fibrosis (picrosirius red staining)” value ([2]; compound 5, 10, or 20 mg/kg or sorafenib 10 mg/kg, with CCl4 for 6 weeks after 2 weeks CCl4 induction, FIG. 12A) was “significantly improved hepatic fibrosis”. The “apoptotic LX2 cells, ectopic expression of the vector control and wild-type SHP-1” value (LX2 cells; 5 μM, 24 hours, FIG. 17D, 17E) was “significantly increased the apoptotic LX2 cells”, the HSC apoptosis (LX2 cells; LX2, 24 hours, compared with sorafenib, FIG. 14B) was “significantly increased HSC apoptosis in a dose-dependent manner” and the “cell apoptosis and p-STAT3 downregulation in dN1 and D61A mutants” value (LX2 cells; LX2, 5 μM, 24 hours, FIG. 17E) was “insensitive”. For the same molecule, the “anti-proliferative activity after SHP-1 knockdown by using siRNA” value (LX2 cells; LX2, FIG. 16F) was “significantly counteracted”.
